Measurements from the SangsterLogP compilation.

Experiment: from Draber, W.; Büchel, H.; Dickore, K.; Trebst, A.; Pistorius, E. (1969). Structure-activity correlation of 1,2,4-triazinones, a new group of photosynthesis inhibitors. In: Progress in Photosynthesis …
Settings: pH 7.0

logD | Compound
0.38 | CSc1nnc(C2CCCCO2)c(=O)n1N (stereo not given)
2.12 | CCCSc1nnc(C(C)C)c(=O)n1N
2.68 | CCCCCCc1nnc(SC)n(N)c1=O
1.85 | CSc1nnc(CCC(C)C)c(=O)n1N
1.66 | CSc1nnc(-c2ccccc2)c(=O)n1N
0.38 | CSc1nncc(=O)n1N
0.49 | CC(C)c1nnc(N2CCOCC2)n(N)c1=O
0.46 | CCc1nnc(SC)n(N)c1=O
-0.06 | COc1nnc(C(C)C)c(=O)n1N
2.06 | CC(C)Sc1nnc(C(C)C)c(=O)n1N
1.52 | CCSc1nnc(C(C)C)c(=O)n1N
1.78 | CCCCNc1nnc(C(C)C)c(=O)n1N
2.07 | CC(C)c1nnc(SCC(=O)c2ccccc2)n(N)c1=O
0.3 | CNc1nnc(C(C)C)c(=O)n1N

Compound | logD
CSc1nnc(C(C)(C)C)c(=O)n1N | 1.7
